Here are results for twelve molecules from patent EP4755885A1 (Shanghai Hansoh Biomedical Co., Ltd., priority 2023, dated 2025).

Broadly, the EC50 is the concentration needed to bring the measured effect to its halfway point. In general, AUC(0-t) refers to exposure summed from dosing to a finite time, without extrapolation to infinity. Higher therefore signals more exposure. The term Cmax denotes the maximum level reached in the sampled fluid or tissue. The Tmax is the time at which the peak concentration occurs. For orientation: AUC(0-inf) means total exposure, with the tail of the curve extrapolated. As a reminder, the half-life is the time needed for the level to fall by half in the phase considered. Read a high half-life as slow decline.

One series deals with T1, human GLP-1 receptor (Homo sapiens, UniProt P43220).
T1 construct: expressed in transfected cells
T1 sequence (P43220 24-463): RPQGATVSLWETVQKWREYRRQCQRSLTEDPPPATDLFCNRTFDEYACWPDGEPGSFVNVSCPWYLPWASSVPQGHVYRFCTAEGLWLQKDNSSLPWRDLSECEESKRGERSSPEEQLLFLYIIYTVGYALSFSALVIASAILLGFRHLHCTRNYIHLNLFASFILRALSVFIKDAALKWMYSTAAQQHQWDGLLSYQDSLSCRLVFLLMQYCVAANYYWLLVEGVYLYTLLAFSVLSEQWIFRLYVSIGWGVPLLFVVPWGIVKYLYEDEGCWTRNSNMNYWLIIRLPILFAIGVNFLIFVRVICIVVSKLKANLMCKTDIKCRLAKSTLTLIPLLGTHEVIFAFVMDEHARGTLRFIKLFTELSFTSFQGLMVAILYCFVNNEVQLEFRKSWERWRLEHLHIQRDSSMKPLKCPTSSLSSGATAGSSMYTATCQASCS
In words: cAMP production in cell line stably transformed with human GLP1 receptor, 2 h co-incubation (HTRF). Format: cell-based. Particulars: CHO-K1/GLP-1R/CRE-luc cells, stimulation for 2 h, read-out: EC50. Here is the method:
The purpose of this assay example is to test the ability of the compound to activate the human GLP-1 receptor on cell surface. The EC50 for stimulated cAMP production after activation characterizes the ability of the compound to activate the human GLP-1 receptor.
In this experiment, the compound and cells were co-incubated for 2 h.
Frozen cell line CHO-K1/GLP-1R/CRE-luc stably transformed with human GLP1 receptor was removed from a liquid nitrogen tank, and was placed in a 37°C water bath for rapid thawing. The cells were resuspended in DMEM/F12 medium, and after centrifugation, were washed once. The cells were resuspended in an experimental buffer, i.e., DMEM/F12 medium containing 0.1% casein. After centrifugation, cell density was adjusted using the experimental buffer. The cells were plated onto a 384-well plate at a density of 1500 cells/5 µL/well. Then, each well was added with 2.5 µL of IBMX working solution prepared with the buffer, the final concentration of IBMX being 0.5 mM, and 2.5 µL of a serially diluted compound sample (starting from […], 3-fold dilution, 12 concentrations). The plate was centrifuged at 1000 rpm for 1 min, and was stood for incubation at 37°C for 2 h. Determination was performed using the Cisbio cAMP - Gs Dynamic kit. cAMP-d2 and anti-cAMP-Eu3+-Cryptate were diluted 18-fold and 20-fold respectively with cAMP Lysis & Detection Buffer, and were respectively mixed homogeneously. Each well was added with 5 µL of diluted cAMP-d2 solution, and the plate was centrifuged at 1000 rpm for 1 min, and shaken for 30 seconds for homogeneous mixing. Then, each well was added with 5 µL of diluted anti-cAMP-Eu3+-Cryptate solution, and the plate was centrifuged at 1000 rpm for 1 min and was incubated in the dark at room temperature for 1 h. HTRF signals were read using the Biotek Synergy H1 microplate reader, the excitation wavelength being 320 nm and the emission wavelengths being 620 nm and 665 nm.
The signal-to-signal ratio was calculated (665 nm/620 nm * 10,000). Nonlinear fitting between the signal-to-signal ratio and the sample concentration was performed in GraphPad Prism 10 using a four-parameter equation to obtain the EC50 value.

A short description of series [1]: Pharmacokinetic evaluation in beagles, oral administration. Format: in vivo. To be noted: p.o. 2 mg/kg, plasma; for MRT inf: read-out: MRT 0-∞. Here is the method: Beagles were used as test animals to study the pharmacokinetic behavior of the compound of the present invention, administered orally at a dose of 2 mg/kg, in beagles (plasma).
Beagles, 3 per group, male.
(§1) Preparation of drug for oral administration: 10%PEG400/10%PG/80% glycine buffer (100 mM glycine, 64 Mm NaOH, […]) buffer.
Single PK: The compound of the present invention was weighed into a 100 mL glass bottle, and the solution was added. The pH was first adjusted with 1 M NaOH until the compound dissolves to obtain a clear solution, and then the pH was readjusted to pH 9.0-9.5 with 1 M HCl. Sonication was performed for 10 min to obtain a colorless clear solution having a concentration of 0.4 mg/mL.
Three beagles, male, respectively administered p.o. after fasting overnight, at a dose of 2 mg/kg and in an administration volume of 5 mL/kg.
Blood collection: 0.3 mL of blood was collected from the forelimb vein of the beagles before administration and at 0.25, 0.5, 1, 2, 4, 6, 8, and 24 h after administration. The blood samples were placed in EDTA-K2 anticoagulant tubes and centrifuged at 6000 rpm at 4°C for 6 min to separate plasma, which was stored at -80°C. The beagles were fed 4 h after administration.
(§2) • 1) 40 µL of a plasma sample was added with 160 µL of acetonitrile for precipitation, and after mixing, the mixture was centrifuged at 3500 × g for 5 to 20 min. • 2) The supernatant solution after treatment was taken for LC/MS/MS analysis of the concentration of the test compound. The LC/MS/MS analysis instrument was AB Sciex API 4000 Qtrap.
• Liquid phase condition: Shimadzu LC-20AD pump • Chromatographic column: Agilent ZORBAX XDB-C18 (50×2.1 mm, 3.5 µm) Mobile phase: Solution A was 0.1% formic acid aqueous solution, and Solution B was acetonitrile • Flow rate: 0.4 mL/min • Elution time: 0-4.0 min, the eluent was as follows: […]

Series [2] can be described thus: Pharmacokinetic evaluation in mice, oral administration. It counts as in vivo, Balb/c mice. To be noted: p.o. 5 mg/kg, plasma; for AUC(0-inf) / AUC(0-t) / Cmax / Tmax / MRT inf: mouse, in vivo, po; for MRT inf: read-out: MRT 0-∞. Here is the method: Balb/c mice were used as test animals to study the pharmacokinetic behavior of the compound of the present invention in mice (plasma) at a dose of 5 mg/kg administered orally and 1 mg/kg administered intravenously.
Balb/c mice, 3 per group, male.
as §1
10 ml of PEG400, 10 ml of PG, and 80 ml of (100 mM glycine, 64 Mm NaOH, pH = 9) were measured into a 100 ml volumetric flask, vortexed, mixed homogeneously, and sonicated to obtain a clear solution.
Single PK: An example compound was weighed into a 4 mL glass bottle. The solution was added, and sonication was performed for 10 min to obtain a colorless clear solution having a concentration of 0.5 mg/mL.
The solution was added, and sonication was performed for 10 min to obtain a colorless clear solution having a concentration of 0.5 mg/mL.
Three Balb/c mice, male, respectively administered p.o. after fasting overnight, at a dose of 5 mg/kg and in an administration volume of 10 mL/kg.
The blood samples were placed in EDTA-K2 anticoagulant tubes and centrifuged at 6000 rpm at 4°C for 6 min to separate plasma, which was stored at -80°C. The mice were fed 4 h after administration.
as §2
• Liquid phase condition: Shimadzu LC-20AD pump • Chromatographic column: Agilent ZORBAX XDB-C18 (50×2.1 mm, 3.5 µm) Mobile phase: Solution A was 0.1% formic acid aqueous solution, and Solution B was acetonitrile • Flow rate: 0.4 mL/min • Elution time: 0-4.0 min, the eluent was as follows:
Main pharmacokinetic parameters were calculated using WinNonlin 6.1.

[3] abbreviates: not marked single PK (cassette PK).

On to “3-((3R,4r,5 S)-4-(5-((S)-2,2-dimethyltetrahydro-2H-pyran-4-yl)-2-((S)-3-(3-(4-fluoro-1-(methyl-d3)-1H-indazol-5-yl)-2-carbonyl-2,3-dihydro-1H-imidazol-1-yl)-2-(4-fluoro-3,5-dimethylbenzene)-4-methyl-4,5,6,7-tetrahydro-2H-pyrazolo[4,3-c]pyridine-5-carbonyl)-1H-indol-1-yl)tetrahydro-2H-pyran-4-yl)-1,2,4-oxadiazol-5(4H)-one [Example 338]”, for which, at human GLP-1 receptor, the EC50 is 0.023 nM. Also, in series [1], the “AUC 0-∞” value turned out to be 21417 ng·h/mL, the area under the curve AUC(0-t) is 20922 ng·h/mL, the Cmax is 3915 ng/mL and the “MRT 0-∞” value stood at 5.3 h. For the same molecule, in series [1], the Tmax was determined as 1.3 h and the t1/2 amounted to 4.4 h.
On to `C[C@H]1c2c(nn(-c3ccc(F)c(C4CC4)c3)c2-n2ccn(-c3ccc4c(c3)C3(CC3)C(=O)N4C)c2=O)CCN1C(=O)c1cc2cc([C@H]3CCOC(C)(C)C3)ccc2n1[C@@]1(c2noc(=O)[nH]2)C[C@@H]1C` [Example 32], for which, in series [2] (setting [3]), the AUC(0-inf) is 9320 ng·h/mL, the AUC(0-t) worked out at 8990 ng·h/mL, the concentration peaked (Cmax) at 1040 ng/mL and the Tmax was found to be 1 h. For the same molecule, in series [2] (setting [3]), the MRT inf was determined as 6.7 h and the tl/2 came out at 5.3 h.
Turning to `Cc1cc(-n2nc3c(c2-n2ccn(-c4cc5c6c(c4)CCC(=O)N6CCC5)c2=O)[C@H](C)N(C(=O)c2cc4cc([C@H]5CCOC(C)(C)C5)ccc4n2[C@@]2(c4noc(=O)[nH]4)C[C@@H]2C)CC3)cc(C)c1F` [Example 34], in series [2] (single PK), the AUC(0-inf) is 13300 ng·h/mL, the AUC(0-t) is 12100 ng·h/mL, the peak level (Cmax) was 1510 ng/mL and the time of peak concentration (Tmax) is 1 h. Besides, in series [2] (single PK), the MRT inf was found to be 9 h and the tl/2 was determined as 7.8 h. The EC50 at human GLP-1 receptor was 0.11 nM. Also, in series [1] (dog, po), the AUC(0-inf) stood at 9390 ng·h/mL, the AUC(0-t) at 24 h is 9090 ng·h/mL, the half-life was 5.1 h and the MRT inf is 5.7 h. In series [1] (dog, po, read-out: Cmax), the Cmax was 1330 ng/mL. Further, the Tmax in series [1] (dog, po, read-out: tmax) was 1.7 h.
In the case of `Cc1cc(-n2nc3c(c2-n2ccn(-c4cc5c6c(c4)OCCN6C(=O)CC5)c2=O)[C@H](C)N(C(=O)c2cc4cc([C@H]5CCOC(C)(C)C5)ccc4n2[C@@]2(c4noc(=O)[nH]4)C[C@@H]2C)CC3)cc(C)c1F` [Example 43], on human GLP-1 receptor, the EC50 is 0.06 nM.
With `Cc1cc(-n2nc3c(c2-n2ccn(-c4ccc5c(cnn5C5CC5)c4F)c2=O)[C@H](C)N(C(=O)c2cc4cc([C@H]5CCOC(C)(C)C5)ccc4n2[C@@]2(c4noc(=O)[nH]4)C[C@@H]2C)CC3)cc(C)c1C#N` [Example 49], in series [2] (single PK), the AUC(0-inf) turned out to be 16600 ng·h/mL, the AUC(0-t) amounted to 15700 ng·h/mL, the Cmax amounted to 2430 ng/mL and the time to peak (Tmax) is 1 h. Further, in series [2] (single PK), the MRT inf came out at 7.1 h and the tl/2 is listed as 6.5 h. In addition, on human GLP-1 receptor, the EC50 is 0.032 nM.
On to `Cc1cc(-n2nc3c(c2-n2ccn(-c4ccc5c(cnn5C5CC5)c4F)c2=O)[C@H](C)N(C(=O)c2cc4cc([C@H]5CCOC(C)(C)C5)ccc4n2[C@@]2(c4noc(=O)[nH]4)C[C@@H]2COC(F)F)CC3)cc(C)c1F` [Example 68], for which the EC50 on human GLP-1 receptor was 0.016 nM.
In the case of `C#C[C@H]1C[C@]1(c1noc(=O)[nH]1)n1c(C(=O)N2CCc3nn(-c4cc(C)c(F)c(C)c4)c(-n4ccn(-c5cc6c7c(c5)CCC(=O)N7CCC6)c4=O)c3[C@@H]2C)cc2cc([C@H]3CCOC(C)(C)C3)ccc21` [Example 174], on human GLP-1 receptor, the EC50 is 0.15 nM.
The same measure, in the same setting: the value for `Cc1cc(-n2nc3c(c2-n2ccn(-c4ccc5c(cnn5C5CC5)c4F)c2=O)[C@H](C)N(C(=O)c2cc4cc([C@H]5CCOC(C)(C)C5)ccc4n2[C@@]2(c4noc(=O)[nH]4)C[C@@H]2COc2ccccc2)CC3)cc(C)c1F` [Example 187] was 0.08 nM; that for `Cc1cc(-n2nc3c(c2-n2ccn(-c4ccc5c(cnn5C5CC5)c4F)c2=O)[C@H](C)N(C(=O)c2cc4cc([C@H]5CCOC(C)(C)C5)ccc4n2[C@@]2(c4noc(=O)[nH]4)C[C@@H]2C#N)CC3)cc(C)c1F` [Example 190] was 0.04 nM.
Turning to `[2H]C([2H])(OC1CC1)[C@H]1C[C@]1(c1noc(=O)[nH]1)n1c(C(=O)N2CCc3nn(-c4cc(C)c(F)c(C)c4)c(-n4ccn(-c5ccc6c(cnn6C6CC6)c5F)c4=O)c3[C@@H]2C)cc2cc([C@H]3CCOC(C)(C)C3)ccc21` [Example 194], in series [2] (setting [3]), the total exposure AUC(0-inf) is 32200 ng·h/mL, the AUC(0-t) came to 19100 ng·h/mL, the Cmax was 1840 ng/mL and the Tmax is 2.7 h. In series [2] (setting [3]), the MRT inf amounted to 26.6 h and the tl/2 is 19.9 h. The EC50 on human GLP-1 receptor was found to be 0.009 nM. Besides, in series [1] (dog, po), the AUC(0-inf) was found to be 43700 ng·h/mL, the AUC(0-t) at 24 h stood at 40100 ng·h/mL, the half-life was 7.6 h and the MRT inf came to 8.3 h. The Cmax in series [1] (dog, po, read-out: Cmax) was determined as 5830 ng/mL. Besides, the Tmax in series [1] (dog, po, read-out: tmax) was found to be 1 h.
Take `Cc1cc(-n2nc3c(c2-n2ccn(-c4ccc5c(cnn5C5CC5)c4F)c2=O)[C@H](C)N(C(=O)c2cc4cc([C@H]5CCOC(C)(C)C5)ccc4n2[C@@]2(c4noc(=O)[nH]4)C[C@@H]2COC2CC2)CC3)cc(C)c1C#N` [Example 195]: the EC50 on human GLP-1 receptor was found to be 0.035 nM.
On the same count and under the same terms, the value for `Cc1cc(-n2nc3c(c2-n2ccn(-c4cc5c6c(c4)CCC(=O)N6CCC5)c2=O)[C@H](C)N(C(=O)c2cc4cc([C@H]5CCOC(C)(C)C5)ccc4n2[C@@]2(c4noc(=O)[nH]4)C[C@@H]2COC2CC2)CC3)cc(C)c1F` [Example 200] was 0.09 nM.
